Laboratory results taken from patent US20100016335A1, “NOVEL AMINOPYRIDINE DERIVATIVES HAVING AURORA A SELECTIVE INHIBITORY ACTION” (priority 2006, published 2010).
pIC50: −log10 of the molar value. Structures can show the parent of a compound that is named as a salt.

Key:
human Aurora A = molecular target: T1, human Aurora A (Homo sapiens, UniProt O14965); test: Aurora A inhibitory activity (IMAP fluorescence polarization phosphorylation assay); assay type: biochemical; conditions: 20 μM ATP, 30° C., 120 minutes
T1 construct: His (N); made in house; host or cells: Escherichia coli BL21-CodonPlus(DE3)-RIL
T1 sequence (O14965 1-403): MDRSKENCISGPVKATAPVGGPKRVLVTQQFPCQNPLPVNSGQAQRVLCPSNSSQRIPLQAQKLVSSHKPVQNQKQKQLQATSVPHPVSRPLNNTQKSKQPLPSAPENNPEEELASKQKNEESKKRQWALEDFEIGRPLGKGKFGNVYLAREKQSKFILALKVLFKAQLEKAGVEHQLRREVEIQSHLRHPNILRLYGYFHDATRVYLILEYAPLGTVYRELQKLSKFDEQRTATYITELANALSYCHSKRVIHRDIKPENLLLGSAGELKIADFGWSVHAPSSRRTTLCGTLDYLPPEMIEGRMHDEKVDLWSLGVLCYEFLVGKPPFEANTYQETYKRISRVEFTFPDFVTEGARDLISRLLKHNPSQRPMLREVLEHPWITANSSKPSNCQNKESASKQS

[1] = molecular target: T2, GST-tagged human Aurora B(AurB)/His-tagged human INCENP complex proteins (Homo sapiens, UniProt Q96GD4); test: Aurora B inhibitory activity (Method A, IMAP assay kit); assay type: biochemical; conditions: 40 μM ATP, 25° C., 45 minutes
T2 construct: GST; purchased Carna Biosciences, Inc
T2 sequence (Q96GD4 whole entry): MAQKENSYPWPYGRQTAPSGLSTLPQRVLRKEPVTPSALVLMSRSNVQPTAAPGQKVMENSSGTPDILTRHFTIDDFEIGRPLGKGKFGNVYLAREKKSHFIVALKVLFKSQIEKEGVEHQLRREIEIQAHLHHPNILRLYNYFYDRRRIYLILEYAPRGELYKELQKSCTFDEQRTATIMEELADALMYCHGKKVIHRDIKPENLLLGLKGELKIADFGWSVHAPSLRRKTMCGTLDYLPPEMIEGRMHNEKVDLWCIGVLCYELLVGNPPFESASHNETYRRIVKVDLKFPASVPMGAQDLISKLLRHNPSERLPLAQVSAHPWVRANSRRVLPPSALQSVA
T2 sequence (Q9NQS7 803-916 partner limits assumed): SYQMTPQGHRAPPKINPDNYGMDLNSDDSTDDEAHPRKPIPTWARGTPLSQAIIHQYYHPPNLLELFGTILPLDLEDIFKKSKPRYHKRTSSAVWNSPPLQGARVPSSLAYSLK

[2] = tested on: Human cervical cancer cells (HeLa S3); test: Cell growth inhibitory effect, WST-8 method; assay type: cell-based; conditions: Homo sapiens, 72 h; HeLa S3, three days incubation; read-out: Cell growth inhibitory effect (HeLaS3) (IC50)
Method: Fetal calf serum (FCS) was purchased from Moregate Biotech, and DMEM medium was purchased from Invitrogen Corp. WST-8 was purchased from Kishida Chemical Co., Ltd.
(§1) Human cervical cancer cells (HeLa S3) were obtained from the American Type Culture Collection (ATCC).
Cells were suspended in a DMEM medium containing 10% FCS, and the cell suspension was dispensed to a 96-well plastic plate at a rate of 750 cells/100 microliters per well. The plate was incubated overnight in 5% CO2-95% air at 37° C. A drug was subjected to graded dilution in dimethylsulfoxide and further diluted with a DMEM medium containing 10% FCS. Then, the dilution was dispensed to the plate on which cells had been disseminated in advance, at a rate of 100 microliters per well. The plate was incubated for further three days in 5% CO2-95% air at 37° C. Cell growth after incubation was measured by the WST-8 method (H. Tominaga, et al., Anal. Commun., 36, 47-50 (1999)). Here, the WST-8 method refers to a method in which 20 microliters of a WST-8 reagent solution is added to each well, incubation is conducted at 37° C. for 60 minutes, the plate is stirred, and the amount of formazan produced is measured by a […] method to determine the inhibitory rate of the drug.

[3] = tested on: Human cervical cancer cells (HeLa S3); test: Effect by combined use of drugs in cells (docetaxel), WST-8 method; assay type: cell-based; conditions: HeLa S3, three days; for inhibition at 0.3 µM: compound 0.3 μM alone; for inhibition at 1 µM: compound 1.0 μM alone; for inhibition at 0.1 µM: compound 0.1 μM alone
Method: Fetal calf serum (FCS) was purchased from Moregate Biotech, DMEM medium from Invitrogen Corp., docetaxel (tradename: Taxere) from Sigma-Aldrich, Inc., and WST-8 from Kishida Chemical Co., Ltd.
as §1
Cells were suspended in a DMEM medium containing 10% FCS, and the cell suspension was dispensed to two 96-well plastic plates at a rate of 750 cells/100 microliters per well. The plates were incubated overnight in 5% CO2-95% air at 37° C. A drug was subjected to graded dilution in dimethylsulfoxide and further diluted with DMSO or with a DMEM medium containing 10% FCS and also containing 0.6 nM docetaxel. Then, the dilutions were each dispensed to one of the plates on which cells had been disseminated in advance, at a rate of 100 microliters per well. The final concentration of docetaxel at this stage was 0.3 nM. Also, the concentrations in the case of sole administration of the compound according to the invention were 0.003, 0.01, 0.03, 0.1, 0.3, 1, 3 and 10 μM. The plates were incubated for further three days in 5% CO2-95% air at 37° C. Cell growth after incubation was measured by the WST-8 method (H. Tominaga, et al., Anal. Commun., 36, 47-50 (1999)). Here, the WST-8 method refers to a method in which 20 microliters of a WST-8 reagent solution is added to each well, incubation is conducted at 37° C. for 60 minutes, the plate is stirred, and the amount of formazan produced is measured by a colorimetric method to determine the inhibitory rate of the drug. The growth inhibitory effects of docetaxel and of the compound according to the invention were determined, with the value obtained in sole treatment of DMSO being defined as 0%.

[4] = Homo sapiens, HeLa S3, 72 h, read-out: Cell growth inhibitory effect by sole administration of the compound of Example (%)
[5] = compound 0.3 μM + docetaxel 0.3 nM
[6] = compound 1.0 μM + docetaxel 0.3 nM
[7] = compound 0.1 μM + docetaxel 0.3 nM

| Structure (SMILES) | pIC50 (human Aurora A) | pIC50 [1] | pIC50 [2] | inhibition at 0.3 µM [3, 4] [%] | inhibition at 1 µM [3, 4] [%] | Cell growth inhibitory effect by combined administration of docetaxel and the compound of Example (%) [3, 5] [%] | Cell growth inhibitory effect by combined administration of docetaxel and the compound of Example (%) [3, 6] [%] | inhibition at 0.1 µM [3, 4] [%] | Cell growth inhibitory effect by combined administration of docetaxel and the compound of Example (%) [3, 7] [%] | inhibition at 3 µM ([3]; Homo sapiens, HeLa S3, 72 h, compound 3.0 μM alone, read-out: Cell growth inhibitory effect by sole administration of the compound of Example (%)) [%] | Cell growth inhibitory effect by combined administration of docetaxel and the compound of Example (%) ([3]; compound 3.0 μM + docetaxel 0.3 nM) |
| --- | --- | --- | --- | --- | --- | --- | --- | --- | --- | --- | --- |
| NC(=O)[C@]1(Cc2cccc(Nc3cc[nH]n3)n2)CC[C@@H](Oc2cccc(Cl)c2F)CC1 [Example 11, trans-4-(3-chloro-2-fluorophenoxy)-1-((6-(1H-pyrazol-3-ylamino)pyridin-2-yl)methyl)cyclohexanecarboxamide] | 8.74 | 6.12 | 5.55 | 15.1 | 25.4 | 72.1 | 84.5 | – | – | – | – |
| O=c1[nH]nc([C@]2(Cc3cccc(Nc4cc[nH]n4)n3)CC[C@@H](S(=O)(=O)c3cccc(Cl)c3Cl)CC2)o1 [Example 36, 5-(trans-4-((2,3-dichlorophenyl)sulfonyl)-1-((6-(1H-pyrazol-3-ylamino)pyridin-2-yl)methyl)cyclohexyl)-1,3,4-oxadiazol-2(3H)-one trifluoroacetate] | 9.37 | 6.43 | 5.95 | 32 | – | 88.9 | – | 2.6 | 76.8 | – | – |
| O=C(O)[C@]1(Cc2cccc(Nc3cc[nH]n3)n2)CC[C@@H](Oc2cccc(C(F)(F)F)c2F)CC1 [Example 9, trans-4-(2-fluoro-3-(trifluoromethyl)phenoxy)-1-((6-(1H-pyrazol-3-ylamino)pyridin-2-yl)methyl)cyclohexanecarboxylic acid trifluoroacetate] | 9.80 | 6.72 | 5.66 | – | 37.1 | – | 91.8 | – | – | 59 | 95.0 |
| O=c1[nH]nc([C@]2(Cc3cccc(Nc4cc[nH]n4)n3)CC[C@@H](Sc3cccc(Cl)c3Cl)CC2)o1 [Example 34, 5-(trans-4-((2,3-dichlorophenyl)thio)-1-((6-(1H-pyrazol-3-ylamino)pyridin-2-yl)methyl)cyclohexyl)-1,3,4-oxadiazol-2(3H)-one trifluoroacetate] | 9.33 | 6.16 | 6.06 | 40.8 | – | 93.9 | – | 3.9 | 83.8 | – | – |

Continued, in another order:

| pIC50 (human Aurora A) | pIC50 [1] | pIC50 [2] | Structure (SMILES) | inhibition at 0.3 µM [3, 4] [%] | inhibition at 1 µM [3, 4] [%] | Cell growth inhibitory effect by combined administration of docetaxel and the compound of Example (%) [3, 5] [%] | Cell growth inhibitory effect by combined administration of docetaxel and the compound of Example (%) [3, 6] [%] | inhibition at 0.1 µM [3, 4] [%] | Cell growth inhibitory effect by combined administration of docetaxel and the compound of Example (%) [3, 7] [%] | inhibition at 3 µM ([3]; Homo sapiens, HeLa S3, 72 h, compound 3.0 μM alone, read-out: Cell growth inhibitory effect by sole administration of the compound of Example (%)) [%] | Cell growth inhibitory effect by combined administration of docetaxel and the compound of Example (%) ([3]; compound 3.0 μM + docetaxel 0.3 nM) |
| --- | --- | --- | --- | --- | --- | --- | --- | --- | --- | --- | --- |
| 10.10 | 7.41 | 6.47 | O=C(O)[C@]1(Cc2cccc(Nc3nccs3)n2)CC[C@@H](Sc2cccc(Cl)c2Cl)CC1 [Example 30, trans-4-((2,3-dichlorophenyl)thio)-1-((6-(1,3-thiazol-2-ylamino)pyridin-2-yl)methyl)cyclohexanecarboxylic acid trifluoroacetate] | 53.4 | – | 92.0 | – | 28.3 | 81.2 | – | – |
| 9.82 | 7.15 | 6.23 | O=C(O)[C@]1(Cc2cccc(Nc3nccs3)n2)CC[C@@H](S(=O)(=O)c2cccc(Cl)c2Cl)CC1 [Example 32, trans-4-((2,3-dichlorophenyl)sulfonyl)-1-((6-(1,3-thiazol-2-ylamino)pyridin-2-yl)methyl)cyclohexanecarboxylic acid trifluoroacetate] | 40.8 | – | 94.0 | – | 6.3 | 88.6 | – | – |
| 10.15 | 7.43 | 5.71 | Cl.O=C(O)[C@]1(Cc2cccc(Nc3nccs3)n2)CC[C@@H](Oc2cccc(Cl)c2Cl)CC1 [Example 6, trans-4-(2,3-dichlorophenoxy)-1-((6-(1,3-thiazol-2-ylamino)pyridin-2-yl)methyl)cyclohexanecarboxylic acid hydrochloride] | 7.2 | 25.6 | 70.0 | 87.0 | – | – | – | – |
| 9.31 | 6.70 | 6.05 | CONC(=O)[C@]1(Cc2cccc(Nc3nccs3)n2)CC[C@@H](Oc2cccc(Cl)c2F)CC1 [Example 18, trans-4-(3-chloro-2-fluorophenoxy)-N-methoxy-1-((6-(1,3-thiazol-2-ylamino)pyridin-2-yl)methyl)cyclohexanecarboxamide] | 21.3 | – | 77.4 | – | 7.4 | 61.5 | – | – |
